Experimental data: US6608036B1, “Oligonucleotide N3′→P5′ thiophosphoramidates: their synthesis and administration to treat neoplasms” (Geron Corporation, priority 1999, dated 2003)
Read-outs that look alike come from different tables or passages of the source.

How the values were obtained:
[1] = test system: HME50-5E cells; assay: Reduction of telomere length in tumor cells (TRF analysis); type: cell-based, human; details: for telomere length by TRF analysis: about 0.5 μM, measured at 10, 20, 40 and 80 days (FIG. 7)
Experimental: Colonies of human breast epithelial cells (spontaneously immortalized) were prepared using standard methods and materials. Colonies were prepared by seeding 15-centimeter dishes with about 10^6 cells in each dish. The dishes were incubated to allow the cell colonies to grow to about 80% confluence, at which time each of the colonies were divided into two groups. One group was exposed to a subacute dose of thiophosphoramidate polynucleotide SEQ ID NO:2 at a predetermined concentration (e.g., between about 100 nM and about 20 μM) for a period of about 4-8 hours after plating following the split. The second group of cells were similarly exposed to mismatch control oligonucleotide SEQ ID NO:4.
Each group of cells is then allowed to continue to divide, and the groups are split evenly again (near confluence). The same number of cells were seeded for continued growth. The test thiophosphoramidate oligonucleotide or control oligonucleotide was added every fourth day to the samples at the same concentration delivered initially. In one experiment the cells were additionally treated with FuGENE6™ (Boehringer-Mannhiem) following manufacturers instructions. FuGENE6™ enhances oligonucleotide uptake by the cells.
Telomere length was determined by digesting the DNA of the cell samples using restriction enzymes specific for sequences other than the repetitive T2AG3 sequence of human telomeres (TRF analysis). The digested DNA was separated by size using standard techniques of gel electrophoresis to determine the lengths of the telomeric repeats, which appear, after probing with a telomere DNA probe, on the gel as a smear of high-molecular weight DNA (approximately 2 Kb-15 Kb). FIGS. 4 and 5 show examples of such experiments.
The HME50-5E cells were incubated with one of the thiophosphoramidate polynucleotides shown in SEQ ID NOs:2 and 8. The mismatch oligonucleotide SEQ ID NO:4 was used as a control. All polynucleotides were used at a concentration of about 0.5 μM using the protocol described above. The length of the telomeres were measured at 10, 20, 40 and 80 days. […] In addition to the HME50-5E cells described above, this assay can be performed with any telomerase-positive cell line, such as HeLa cells or HEK-293 cells.

[2] = test system: complementary natural RNA oligomer; assay: Thermal dissociation (Tm) of duplexes with complementary RNA strand; type: binding; details: 150 mM NaCl; for Tm, melting temperature of the duplexes: 10 mM sodium phosphate buffer pH 7.4, ±0.5° C.
Experimental: ^31P NMR spectra were obtained on a Varian 400 Mhz spectrometer. ^31P NMR spectra were referenced against 85% aqueous phosphoric acid. Anion exchange HPLC was performed using a Dionex DX 500 Chromatography System, with a Pharmacia Bitotech Mono Q HR 5/5 or 10/16 ion exchange columns. Mass spectral analysis was performed by Mass Consortium, San Diego, Calif. MALDI-TOF analysis of oligonucleotides was obtained using a PerSpective Biosystems Voyager Elite mass spectrometer with delayed extraction. Thermal dissociation experiments were conducted on a Cary Bio 100 UV-Vis spectrometer.
Duplex formation properties of oligonucleotide phosphoramidates with complementary RNA strand were evaluated using thermal dissociation experiments. […] Also, the increase in the thermal stability of duplexes was similar to that observed for the phosphoramidate oligomers.

[3] = test system: telomerase (affinity-purified extract from 293 cells over-expressing hTERT); assay: Bio-Tel FlashPlate telomerase activity assay; type: biochemical, human; details: telomerase inhibition
[4] = 40% aqueous acetic acid at room temperature
[5] = thiophosphoramidate backbone, read-out: IC50(nM) thiophosphoramidate
[6] = phosphoramidate backbone, read-out: IC50(nM) phosphoramidate

Substance: 5′-TAGGGTTAGACAA-3′ (thiophosphoramidate backbone, chemistry not fully specified) [SEQ ID NO:2 thiophosphoramidate]
- telomere size compared to control cells ([1]; HME50-5E cells coincubated with FuGENE6, even at lowest concentration tested (100 nM) (FIG. 4)): telomere size was reduced compared to the control cells
- telomere length by TRF analysis ([1]; HME50-5E cells): effective in reducing telomere length
- telomere length ([1]; HME50-5E cells, absence of FuGENE6, 1-20 μM (FIG. 4)): large decrease in telomere length
- telomere length (inhibition of telomerase activity) ([1]; treatment of HME50-5E human breast epithelial cells): decrease in telomere length
- −Tm, increase of Tm relative to the natural phosphodiester counterpart ([2]; 10 mM sodium phosphate buffer pH 7.4): 24.8 °C
- Tm, melting temperature of the duplexes [2]: 70.0 °C
- IC50 [3, 5]: 0.41 nM

Substance: 5′-TAGGGTTAGACAA-3′ [SEQ ID NO:2 thiophosphoramidate] (thiophosphoramidate backbone, chemistry not fully specified)
- Acid Stability, half-live of oligonucleotide ([4]; listed as SEQ ID NO:2 nps): 6 h

Substance: 5′-GTTAGGGTTAG-3′ (listed as DNA, chemistry not fully specified) [SEQ ID NO:1 phosphoramidate]
- −Tm, increase of Tm relative to the natural phosphodiester counterpart ([2]; 10 mM sodium phosphate buffer pH 7.4, listed as SEQ ID NO:1 np): 27.9 °C
- Tm, melting temperature of the duplexes ([2]; listed as SEQ ID NO:1 np): 72.1 °C
- IC50 [3, 6]: 1.9 nM

Substance: 5′-GTTGAGTGTAG-3′ (listed as DNA, chemistry not fully specified) [SEQ ID NO:3 phosphoramidate, N3′→P5′ phosphoramidate mismatch control, reference compound]
- IC50 [3, 6]: 1000 nM

Substance: TAGGGTTAGACAA (DNA, all phosphodiester, methylation of C not given here) [SEQ ID NO:2 po, natural phosphodiester oligomer]
- Tm, melting temperature of the duplexes [2]: 45.2 °C

Substance: 5′-GTTGAGTGTAG-3′ (listed as DNA, chemistry not fully specified) [SEQ ID NO:3 thiophosphoramidate]
- IC50 [3, 5]: 177 nM

Substance: 5′-GTTAGGGTTAG-3′ (listed as DNA, chemistry not fully specified) [SEQ ID NO:1 thiophosphoramidate]
- −Tm, increase of Tm relative to the natural phosphodiester counterpart ([2]; 10 mM sodium phosphate buffer pH 7.4, listed as SEQ ID NO:1 nps): 27.3 °C
- Tm, melting temperature of the duplexes ([2]; listed as SEQ ID NO:1 nps): 71.5 °C
- IC50 [3, 5]: 0.89 nM

Substance: 5′-TAGGGTTAGACAA-3′ [SEQ ID NO:2 phosphoramidate]
- Acid Stability, half-live of oligonucleotide ([4]; listed as SEQ ID NO:2 np): 0.5 h
- −Tm, increase of Tm relative to the natural phosphodiester counterpart ([2]; 10 mM sodium phosphate buffer pH 7.4, listed as SEQ ID NO:2 np): 26.5 °C
- Tm, melting temperature of the duplexes ([2]; listed as SEQ ID NO:2 np): 71.7 °C

Substance: 5′-TAGGTGTAAGCAA-3′ (listed as DNA, chemistry not fully specified) [SEQ ID NO:4 thiophosphoramidate]
- IC50 [3, 5]: 79.3 nM

Substance: CAGTTAGGGTTAG (listed as DNA, chemistry not fully specified) [SEQ ID NO:8 thiophosphoramidate]
- telomere length by TRF analysis ([1]; HME50-5E cells): effective in reducing telomere length
- telomere size compared to control cells ([1]; even at lowest concentration tested (1 nM) (FIG. 5)): telomere size was reduced compared to the control cells

Substance: 5′-TAGGTGTAAGCAA-3′ (listed as DNA, chemistry not fully specified) [SEQ ID NO:4 phosphoramidate, N3′→P5′ phosphoramidate mismatch control, reference compound]
- IC50 [3, 6]: 1000 nM

Substance: GTTAGGGTTAG (unmodified DNA) [SEQ ID NO:1 po, natural phosphodiester oligomer]
- Tm, melting temperature of the duplexes [2]: 44.2 °C
